Reference: ChEMBL document CHEMBL1201862, “PubChem BioAssay data set” (2004)
Activity calls are given as the source filed them.

Assays:
[1] = biological target: Delta-type opioid receptor (Homo sapiens, UniProt P41143); assay: SAR Analysis of Antagonists of the DOR Receptor using an Image-Based Assay - Set 3. [Related pubchem assays (depositor defined):AID1777, AID1785]; format: functional;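 further: U2OS cells expressing DOR1 and beta-arrestin GFP stimulated with 100 nM SNC80; imaging of GFP-tagged beta-arrestin moving into spots after receptor activation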
Delta-type opioid receptor, sequence (P41143 whole entry): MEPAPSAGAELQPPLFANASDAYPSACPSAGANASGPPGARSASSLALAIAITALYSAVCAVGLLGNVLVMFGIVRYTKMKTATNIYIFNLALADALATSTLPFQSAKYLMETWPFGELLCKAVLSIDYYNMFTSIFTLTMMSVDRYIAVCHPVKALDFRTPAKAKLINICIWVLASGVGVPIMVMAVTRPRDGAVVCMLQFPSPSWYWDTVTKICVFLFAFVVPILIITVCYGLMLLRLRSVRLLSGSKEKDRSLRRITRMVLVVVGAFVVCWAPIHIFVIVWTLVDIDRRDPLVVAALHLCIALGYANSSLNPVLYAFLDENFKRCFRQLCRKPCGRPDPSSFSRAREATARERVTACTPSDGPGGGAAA

[2] = biological target: T1, Kappa-type opioid receptor (Homo sapiens, UniProt P41145); assay: SAR analysis of small molecule antagonists of the kappa opioid receptor via a luminescent beta-arrestin assay - Set 3. [Related pubchem assays (depositor defined):AID1777, AID1778, AID1785, AID1786, AID1966, AID2133, AID2136, AID2285, AID2495]; format: functional
T1 sequence (P41145 whole entry): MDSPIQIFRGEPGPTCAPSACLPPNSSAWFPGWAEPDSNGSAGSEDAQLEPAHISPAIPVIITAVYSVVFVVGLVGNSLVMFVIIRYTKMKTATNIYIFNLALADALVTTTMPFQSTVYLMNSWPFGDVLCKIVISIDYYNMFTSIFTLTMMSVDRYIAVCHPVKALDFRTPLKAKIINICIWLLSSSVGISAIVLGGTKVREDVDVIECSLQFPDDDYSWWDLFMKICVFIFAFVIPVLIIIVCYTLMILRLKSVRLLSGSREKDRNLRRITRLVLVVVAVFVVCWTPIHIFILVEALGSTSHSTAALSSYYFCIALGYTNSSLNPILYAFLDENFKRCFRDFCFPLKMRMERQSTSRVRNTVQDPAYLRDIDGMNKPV

Mu-type opioid receptor = Mu-type opioid receptor (Homo sapiens, UniProt P35372); assay: SAR Analysis of Antagonists of the MOR Receptor using an Image-Based Assay - Set 3. [Related pubchem assays (depositor defined):AID1777, AID1785, AID1786, AID1966, AID2133, AID2136, AID2284, AID2285, AID2420]; format: functional
Mu-type opioid receptor, sequence (P35372 whole entry): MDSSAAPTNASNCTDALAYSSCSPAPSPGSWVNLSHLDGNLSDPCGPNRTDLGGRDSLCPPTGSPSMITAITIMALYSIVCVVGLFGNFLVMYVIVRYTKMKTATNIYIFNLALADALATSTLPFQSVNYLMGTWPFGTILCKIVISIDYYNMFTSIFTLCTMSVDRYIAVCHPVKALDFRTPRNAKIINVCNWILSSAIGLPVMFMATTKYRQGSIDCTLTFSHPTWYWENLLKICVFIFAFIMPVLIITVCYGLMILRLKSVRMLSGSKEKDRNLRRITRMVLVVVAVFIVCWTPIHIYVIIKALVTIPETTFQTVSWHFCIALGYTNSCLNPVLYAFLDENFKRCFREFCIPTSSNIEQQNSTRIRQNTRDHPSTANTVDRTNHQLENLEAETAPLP

[3] = biological target: T1, Kappa-type opioid receptor; assay: SAR analysis of Antagonists of the Kappa Opioid Receptor (KOR) using an Image-Based Assay - Set 3. [Related pubchem assays (depositor defined):AID1777, AID1785]; format: functional
Genome polyprotein = Genome polyprotein (Hepatitis C virus, UniProt Q2Q167); assay: HCV core protein dimerization inhibitors, dose response, biochemical, TR-FRET (AID 2159); parameters: species or system Hepacivirus hominis;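 further: blocks dimerization of HCV core protein measured by TR-FRET between tagged core106 pairs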
Genome polyprotein, sequence (Q2Q167 whole entry): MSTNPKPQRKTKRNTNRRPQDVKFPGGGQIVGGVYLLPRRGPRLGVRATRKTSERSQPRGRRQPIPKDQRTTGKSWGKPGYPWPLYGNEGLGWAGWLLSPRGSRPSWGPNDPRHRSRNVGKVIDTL

[4] = biological target: T2, Runt-related transcription factor 1/Core-binding factor subunit beta (Homo sapiens, UniProt Q01196+Q13951); assay: inhibitors of RUNX1 Runt–CBFb-SMMHC binding, biochemical, TR-FRET (AID 1438); format: protein assay
T2 sequence (Q01196 whole entry, the tested form may be a part): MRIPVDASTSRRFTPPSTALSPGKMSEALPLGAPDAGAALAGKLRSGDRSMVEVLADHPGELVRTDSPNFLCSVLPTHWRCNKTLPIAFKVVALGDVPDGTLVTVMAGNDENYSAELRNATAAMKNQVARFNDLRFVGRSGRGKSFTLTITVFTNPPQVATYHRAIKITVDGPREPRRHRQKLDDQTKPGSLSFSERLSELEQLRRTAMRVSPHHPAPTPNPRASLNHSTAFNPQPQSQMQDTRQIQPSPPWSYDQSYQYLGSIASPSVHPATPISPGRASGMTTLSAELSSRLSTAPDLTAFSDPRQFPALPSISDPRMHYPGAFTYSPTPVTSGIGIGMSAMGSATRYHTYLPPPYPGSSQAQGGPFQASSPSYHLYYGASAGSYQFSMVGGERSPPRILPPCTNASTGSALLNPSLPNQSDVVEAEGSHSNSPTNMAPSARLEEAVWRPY
T2 sequence (Q13951 whole entry, the tested form may be a part): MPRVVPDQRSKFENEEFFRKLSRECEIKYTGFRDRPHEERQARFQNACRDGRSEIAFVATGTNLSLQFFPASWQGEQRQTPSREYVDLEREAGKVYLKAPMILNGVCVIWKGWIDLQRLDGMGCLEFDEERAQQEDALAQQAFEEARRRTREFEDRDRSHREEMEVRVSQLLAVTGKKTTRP

[5] = biological target: T2, Runt-related transcription factor 1/Core-binding factor subunit beta; assay: inhibitors of RUNX1 Runt–CBFb-SMMHC binding, primary screen, biochemical, FRET, Cerulean-Runt, Venus-CBFb-SMMHC, uHTS (AID 1434); format: protein assay;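 further: partner is the CBFb-SMMHC leukemia fusion protein rather than wild-type CBFb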
[6] = biological target: T3, Nucleotide-binding oligomerization domain-containing protein 1 (Homo sapiens, UniProt Q9Y239); assay: SAR analysis of compounds that inhibit NOD1 - Set 2. [Related pubchem assays (depositor defined):AID1566, AID1575, AID1578, AID1849, AID1852, AID2333, AID2335, AID2798]; format: functional
T3 sequence (Q9Y239 whole entry): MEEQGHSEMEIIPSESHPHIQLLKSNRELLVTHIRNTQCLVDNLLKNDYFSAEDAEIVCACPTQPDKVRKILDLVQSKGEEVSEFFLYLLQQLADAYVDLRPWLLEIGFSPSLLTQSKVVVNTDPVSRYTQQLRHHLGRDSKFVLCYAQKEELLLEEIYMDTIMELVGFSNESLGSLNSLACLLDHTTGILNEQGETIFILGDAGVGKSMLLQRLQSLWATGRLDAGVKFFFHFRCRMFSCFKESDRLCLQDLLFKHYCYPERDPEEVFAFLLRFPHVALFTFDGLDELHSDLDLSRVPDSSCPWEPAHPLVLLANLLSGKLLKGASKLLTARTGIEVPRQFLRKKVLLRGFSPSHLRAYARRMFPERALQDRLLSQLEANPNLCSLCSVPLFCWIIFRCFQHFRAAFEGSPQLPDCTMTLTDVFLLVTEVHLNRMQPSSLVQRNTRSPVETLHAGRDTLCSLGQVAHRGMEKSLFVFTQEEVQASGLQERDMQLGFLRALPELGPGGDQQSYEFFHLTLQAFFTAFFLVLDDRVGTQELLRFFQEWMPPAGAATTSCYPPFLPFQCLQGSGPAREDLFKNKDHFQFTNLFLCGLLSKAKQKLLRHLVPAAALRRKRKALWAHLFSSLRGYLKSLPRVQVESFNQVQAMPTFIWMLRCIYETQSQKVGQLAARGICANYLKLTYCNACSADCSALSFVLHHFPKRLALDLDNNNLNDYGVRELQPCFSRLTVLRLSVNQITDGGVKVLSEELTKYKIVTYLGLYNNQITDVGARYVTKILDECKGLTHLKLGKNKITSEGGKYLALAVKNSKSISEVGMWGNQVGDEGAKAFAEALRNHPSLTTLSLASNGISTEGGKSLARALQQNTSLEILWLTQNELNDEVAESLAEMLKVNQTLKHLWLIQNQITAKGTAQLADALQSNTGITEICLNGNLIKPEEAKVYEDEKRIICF

[7] = biological target: T4, Nucleotide-binding oligomerization domain-containing protein 2 (Homo sapiens, UniProt Q9HC29); assay: PubChem AID 2334; format: functional
T4 sequence (Q9HC29 whole entry, the tested form may be a part): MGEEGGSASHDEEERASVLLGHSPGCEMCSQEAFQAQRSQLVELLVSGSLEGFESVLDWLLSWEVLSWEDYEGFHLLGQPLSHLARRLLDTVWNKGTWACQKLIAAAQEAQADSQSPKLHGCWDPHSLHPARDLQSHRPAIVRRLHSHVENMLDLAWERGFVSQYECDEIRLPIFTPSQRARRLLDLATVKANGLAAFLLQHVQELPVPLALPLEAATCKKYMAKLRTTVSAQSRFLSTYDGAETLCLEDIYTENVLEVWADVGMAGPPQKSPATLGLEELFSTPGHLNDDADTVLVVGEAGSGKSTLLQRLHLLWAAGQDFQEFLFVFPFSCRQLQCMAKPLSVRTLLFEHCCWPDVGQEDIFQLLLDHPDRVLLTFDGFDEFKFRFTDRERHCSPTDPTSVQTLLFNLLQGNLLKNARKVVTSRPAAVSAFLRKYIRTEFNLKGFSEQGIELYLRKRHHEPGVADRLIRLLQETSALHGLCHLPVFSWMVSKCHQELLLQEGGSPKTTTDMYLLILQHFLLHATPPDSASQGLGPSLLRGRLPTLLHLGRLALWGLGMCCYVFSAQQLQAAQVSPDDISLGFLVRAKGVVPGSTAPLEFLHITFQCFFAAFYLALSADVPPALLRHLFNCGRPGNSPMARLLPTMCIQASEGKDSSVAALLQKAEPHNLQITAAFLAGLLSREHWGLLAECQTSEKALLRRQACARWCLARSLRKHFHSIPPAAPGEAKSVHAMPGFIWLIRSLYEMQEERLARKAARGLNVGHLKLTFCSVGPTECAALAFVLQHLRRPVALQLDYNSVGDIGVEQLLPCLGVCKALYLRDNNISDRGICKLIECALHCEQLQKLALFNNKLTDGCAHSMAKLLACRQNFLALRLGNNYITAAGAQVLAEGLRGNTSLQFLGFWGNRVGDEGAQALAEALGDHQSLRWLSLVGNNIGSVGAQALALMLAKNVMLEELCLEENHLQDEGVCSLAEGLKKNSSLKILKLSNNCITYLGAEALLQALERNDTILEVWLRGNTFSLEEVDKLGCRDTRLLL

[8] = biological target: T4, Nucleotide-binding oligomerization domain-containing protein 2; assay: NOD2 signaling inhibitors, cell-based, luminescence, uHTS, HEK293 (AID 1566); format: functional
Tumor necrosis factor [9] = biological target: T5, Tumor necrosis factor (Homo sapiens, UniProt P01375); assay: TNFa-triggered NF-kB activation inhibitors, SAR follow-up, cell-based, set 2 (AID 2483); format: functional
T5 sequence (P01375 whole entry, the tested form may be a part): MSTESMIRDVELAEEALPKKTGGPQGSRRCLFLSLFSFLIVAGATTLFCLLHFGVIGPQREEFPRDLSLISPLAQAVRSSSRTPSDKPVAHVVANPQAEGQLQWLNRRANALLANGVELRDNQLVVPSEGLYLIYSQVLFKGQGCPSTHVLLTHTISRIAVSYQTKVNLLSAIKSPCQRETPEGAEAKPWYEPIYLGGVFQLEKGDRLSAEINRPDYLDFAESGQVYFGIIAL

[10] = biological target: T4, Nucleotide-binding oligomerization domain-containing protein 2; assay: NOD2 inhibitors, SAR follow-up, set 2 (AID 2475); format: functional
HEK293 [11] = assay: cells; format: functional, cell-based; conditions: Homo sapiens
HEK293 [12] = assay: NOD1 signaling inhibitors, primary screen, cell-based, luminescence, uHTS (AID 1578); format: functional; conditions: Homo sapiens
HEK293 [13] = assay: cells; format: functional, cell-based; conditions: Homo sapiens; remark: listed apart in the source
[14] = biological target: T3, Nucleotide-binding oligomerization domain-containing protein 1; assay: NOD1 signaling inhibitors, SAR follow-up, revised (AID 2333); format: functional
[15] = biological target: Transitional endoplasmic reticulum ATPase (Homo sapiens, UniProt P55072); assay: p97 ATPase inhibitors, dose response, biochemical (AID 1534)
Transitional endoplasmic reticulum ATPase (Homo sapiens, UniProt P55072), sequence (P55072 whole entry): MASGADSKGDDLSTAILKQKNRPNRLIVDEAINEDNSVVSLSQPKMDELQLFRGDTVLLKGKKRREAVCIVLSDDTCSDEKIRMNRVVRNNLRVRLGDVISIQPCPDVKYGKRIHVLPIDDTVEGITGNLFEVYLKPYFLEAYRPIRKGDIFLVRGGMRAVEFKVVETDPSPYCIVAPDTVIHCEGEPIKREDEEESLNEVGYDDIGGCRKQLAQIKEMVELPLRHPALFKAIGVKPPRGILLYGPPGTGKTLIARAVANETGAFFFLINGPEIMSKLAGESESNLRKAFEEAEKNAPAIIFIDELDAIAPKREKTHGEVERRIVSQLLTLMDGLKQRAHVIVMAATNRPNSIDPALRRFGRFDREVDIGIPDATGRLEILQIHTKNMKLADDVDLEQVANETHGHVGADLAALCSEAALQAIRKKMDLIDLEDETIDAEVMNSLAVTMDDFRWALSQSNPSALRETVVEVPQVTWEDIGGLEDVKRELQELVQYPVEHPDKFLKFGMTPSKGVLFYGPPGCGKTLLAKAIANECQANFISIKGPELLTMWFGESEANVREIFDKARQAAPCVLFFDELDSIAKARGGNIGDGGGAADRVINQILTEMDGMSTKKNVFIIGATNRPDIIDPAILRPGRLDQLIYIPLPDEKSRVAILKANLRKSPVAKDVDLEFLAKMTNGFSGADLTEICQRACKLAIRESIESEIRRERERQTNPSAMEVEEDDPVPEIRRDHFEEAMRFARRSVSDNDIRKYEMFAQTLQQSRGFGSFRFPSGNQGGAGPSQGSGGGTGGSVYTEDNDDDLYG

HEK293 [16] = assay: NOD2 signaling inhibitors in MDP-stimulated cells, cell-based, uHTS, luminescence (AID 2001); format: functional; conditions: Homo sapiens
[17] = biological target: Transitional endoplasmic reticulum ATPase (Homo sapiens, UniProt P55072, C522A); assay: C522A mutant p97 ATPase inhibitors, dose response, counter-screen for p97 inhibitor project, biochemical, luminescence (AID 1544)
Transitional endoplasmic reticulum ATPase (Homo sapiens, UniProt P55072, C522A), sequence (P55072 2-806 C522A limits assumed): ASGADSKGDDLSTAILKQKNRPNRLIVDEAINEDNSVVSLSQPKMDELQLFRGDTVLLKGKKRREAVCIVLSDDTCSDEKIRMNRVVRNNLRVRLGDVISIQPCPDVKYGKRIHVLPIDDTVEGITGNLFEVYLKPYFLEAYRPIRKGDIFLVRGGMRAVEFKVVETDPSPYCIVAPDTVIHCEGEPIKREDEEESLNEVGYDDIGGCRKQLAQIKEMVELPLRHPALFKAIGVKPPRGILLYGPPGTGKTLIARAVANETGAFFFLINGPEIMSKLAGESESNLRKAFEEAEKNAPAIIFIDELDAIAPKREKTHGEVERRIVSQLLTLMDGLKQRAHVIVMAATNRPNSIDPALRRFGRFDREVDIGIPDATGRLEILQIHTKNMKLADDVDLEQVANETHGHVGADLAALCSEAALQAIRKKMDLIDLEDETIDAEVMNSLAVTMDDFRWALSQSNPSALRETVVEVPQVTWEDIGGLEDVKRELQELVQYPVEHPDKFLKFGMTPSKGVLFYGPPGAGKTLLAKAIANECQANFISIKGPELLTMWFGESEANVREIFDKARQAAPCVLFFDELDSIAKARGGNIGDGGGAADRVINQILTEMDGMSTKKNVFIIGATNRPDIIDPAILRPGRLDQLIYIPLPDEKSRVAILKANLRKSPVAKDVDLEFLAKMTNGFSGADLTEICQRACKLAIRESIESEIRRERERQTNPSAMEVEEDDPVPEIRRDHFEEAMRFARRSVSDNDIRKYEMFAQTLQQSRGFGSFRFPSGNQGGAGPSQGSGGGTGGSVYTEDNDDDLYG

HEK293 [18] = assay: cells; format: functional, cell-based; conditions: Homo sapiens; remark: listed apart in the source
Tumor necrosis factor [19] = biological target: T5, Tumor necrosis factor; assay: TNFa-triggered NF-kB activation inhibitors, SAR follow-up, cell-based, revised (AID 2337); format: functional
HEK293 [20] = assay: SAR analysis of compounds that are cytotoxic to HEK293 - Set 2. [Related pubchem assays (depositor defined):AID1575, AID1578, AID1849, AID2001, AID2333, AID2334, AID2335, AID2337, AID2800]; format: functional, cell-based; conditions: Homo sapiens
HEK293 [21] = assay: cells; conditions: Homo sapiens

CCc1ccc(S(=O)(=O)NCc2ccc(C(=O)NCCN(Cc3ccc(C)cc3)C(C)C)cc2)cc1
inactive: IC50 [1] > 32 µM | IC50 (Mu-type opioid receptor) > 32 µM
active: IC50 [2] 0.742 µM | IC50 [3] 0.173 µM

Cc1cccc(C(=O)/N=c2\c(C#N)cc3c(=O)n4cccc(C)c4nc3n2Cc2ccco2)c1
active: IC50 [4] 6.54 µM | IC50 [5] 0.429 µM
> 49.8 µM (not active): IC50 (Genome polyprotein)

Cc1ccc(C)c(SCC(=O)OC/C(O)=C(\C#N)c2nc3ccccc3[nH]2)c1
active: IC50 [6] 4.55 µM | IC50 [10] 4.21 µM
inactive: IC50 [7] > 20 µM | EC50 [8] > 20 µM | IC50 (Tumor necrosis factor [9]) > 20 µM | IC50 (HEK293 [11]) > 20 µM | EC50 (HEK293 [12]) > 20 µM | IC50 (HEK293 [13]) > 20 µM | IC50 [14] > 20 µM | IC50 (HEK293 [16]) 4.92 µM | IC50 (HEK293 [18]) > 20 µM | IC50 (Tumor necrosis factor [19]) > 20 µM | IC50 (HEK293 [20]) > 20 µM | IC50 (HEK293 [21]) > 20 µM
> 50 µM (not active): IC50 [15] | IC50 [17]
